Each block holds one compound with its values, some of them ahead of it. Where a SMILES comes first, the peptide text is derived from it. [ ]: non-standard residue; d: D form. Met(O2) = CS(=O)(=O)CC[C@H](N)C(=O)O
Legend:
Plasminogen [1] = target: T1, Plasminogen (Homo sapiens, UniProt P00747); test: Inhibition of human plasmin using S-2251 as substrate after 30 mins by spectrophotometric method
Plasminogen [2] = target: T1, Plasminogen; test: Inhibition of human plasmin
[3] = target: Vitamin K-dependent protein C (Homo sapiens, UniProt P04070); test: Inhibition of human activated protein […] C using H-D-Lys(Cbo)-Pro-Arg-pNA as substrate
Sequence of Vitamin K-dependent protein C (P04070 43-197 limits assumed): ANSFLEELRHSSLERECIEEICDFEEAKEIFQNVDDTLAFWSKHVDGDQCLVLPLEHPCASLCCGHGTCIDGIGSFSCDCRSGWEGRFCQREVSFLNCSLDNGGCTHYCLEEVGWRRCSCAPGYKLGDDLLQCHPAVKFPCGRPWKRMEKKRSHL
Sequence of Vitamin K-dependent protein C (P04070 212-461 limits assumed): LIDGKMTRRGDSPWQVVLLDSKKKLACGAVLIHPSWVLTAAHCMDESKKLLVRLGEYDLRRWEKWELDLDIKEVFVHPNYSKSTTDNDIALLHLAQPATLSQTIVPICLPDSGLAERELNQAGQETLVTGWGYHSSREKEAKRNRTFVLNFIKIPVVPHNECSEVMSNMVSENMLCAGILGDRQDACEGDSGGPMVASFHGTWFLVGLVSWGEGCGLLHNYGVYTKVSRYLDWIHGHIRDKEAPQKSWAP

[4] = Inhibition of human urinary kallikrein using H-D-Val-Leu-Arg-pNA as substrate
[5] = target: T2, Complement C1s subcomponent (Homo sapiens, UniProt P09871); test: Inhibition of human Complement C1s subcomponent using Val-Ser-Arg-pNA as substrate
T2 sequence (P09871 whole entry): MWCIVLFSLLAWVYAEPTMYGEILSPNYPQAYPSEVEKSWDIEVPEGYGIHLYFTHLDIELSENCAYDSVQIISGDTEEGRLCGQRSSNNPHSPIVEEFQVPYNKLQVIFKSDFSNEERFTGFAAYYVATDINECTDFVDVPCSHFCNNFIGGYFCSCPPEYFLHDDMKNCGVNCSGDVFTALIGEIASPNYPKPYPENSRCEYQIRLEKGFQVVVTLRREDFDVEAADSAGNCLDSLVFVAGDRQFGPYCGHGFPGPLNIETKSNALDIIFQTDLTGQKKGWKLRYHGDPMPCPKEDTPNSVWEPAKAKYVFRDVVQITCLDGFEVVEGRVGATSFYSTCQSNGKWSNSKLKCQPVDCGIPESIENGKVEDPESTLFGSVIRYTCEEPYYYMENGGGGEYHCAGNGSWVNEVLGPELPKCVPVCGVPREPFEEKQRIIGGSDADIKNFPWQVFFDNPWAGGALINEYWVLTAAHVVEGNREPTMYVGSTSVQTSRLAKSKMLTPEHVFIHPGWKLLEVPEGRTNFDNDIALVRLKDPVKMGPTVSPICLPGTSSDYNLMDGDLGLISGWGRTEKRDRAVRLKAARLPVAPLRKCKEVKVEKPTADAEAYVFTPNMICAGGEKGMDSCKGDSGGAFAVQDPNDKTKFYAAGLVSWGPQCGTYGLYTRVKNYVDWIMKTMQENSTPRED

[6] = target: T3, Complement C1r subcomponent (Homo sapiens, UniProt P00736); test: Inhibition of human Complement C1r subcomponent using Val-Ser-Arg-pNA as substrate
T3 sequence (P00736 whole entry): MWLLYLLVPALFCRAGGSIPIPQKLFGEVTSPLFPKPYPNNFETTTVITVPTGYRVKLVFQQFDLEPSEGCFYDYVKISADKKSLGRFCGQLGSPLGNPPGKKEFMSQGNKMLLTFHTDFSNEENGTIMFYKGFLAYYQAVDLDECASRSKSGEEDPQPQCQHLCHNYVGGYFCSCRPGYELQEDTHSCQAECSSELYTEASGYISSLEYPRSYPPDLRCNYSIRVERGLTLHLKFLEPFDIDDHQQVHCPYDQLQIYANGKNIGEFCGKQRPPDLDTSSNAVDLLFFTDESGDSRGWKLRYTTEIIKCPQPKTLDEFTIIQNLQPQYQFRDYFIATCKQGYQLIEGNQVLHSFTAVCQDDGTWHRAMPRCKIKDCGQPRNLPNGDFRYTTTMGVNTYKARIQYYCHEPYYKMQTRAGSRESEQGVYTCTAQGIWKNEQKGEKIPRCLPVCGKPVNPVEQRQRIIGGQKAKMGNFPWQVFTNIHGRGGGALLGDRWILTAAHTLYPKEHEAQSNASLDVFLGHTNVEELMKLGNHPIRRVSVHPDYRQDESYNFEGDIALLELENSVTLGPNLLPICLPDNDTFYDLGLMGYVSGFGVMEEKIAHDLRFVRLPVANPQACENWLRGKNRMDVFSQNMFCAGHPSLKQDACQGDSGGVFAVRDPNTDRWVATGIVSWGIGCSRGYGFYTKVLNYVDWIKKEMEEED

Prothrombin [7] = target: T4, Prothrombin (Homo sapiens, UniProt P00734); test: Inhibition of human factor 2a using Mes-d-Cha-Gly-Arg-pNA as substrate
Coagulation factor X [8] = target: T5, Coagulation factor X (Homo sapiens, UniProt P00742); test: Inhibition of human factor 10a using MeOCO-d-Cha-Gly-Arg-pNA as substrate
T5 sequence (P00742 41-179 limits assumed): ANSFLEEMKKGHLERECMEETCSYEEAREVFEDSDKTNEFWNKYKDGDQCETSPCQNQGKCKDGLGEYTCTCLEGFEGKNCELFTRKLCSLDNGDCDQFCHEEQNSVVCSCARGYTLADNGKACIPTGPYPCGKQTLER
T5 sequence (P00742 235-488 limits assumed): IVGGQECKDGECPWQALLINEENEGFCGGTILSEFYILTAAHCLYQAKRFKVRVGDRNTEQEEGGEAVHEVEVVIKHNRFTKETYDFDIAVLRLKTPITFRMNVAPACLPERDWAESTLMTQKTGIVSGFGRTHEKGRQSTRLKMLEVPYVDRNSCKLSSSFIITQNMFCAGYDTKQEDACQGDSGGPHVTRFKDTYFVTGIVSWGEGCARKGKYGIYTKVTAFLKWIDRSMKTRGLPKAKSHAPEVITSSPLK

Coagulation factor XI = Coagulation factor XI (Homo sapiens, UniProt P03951); test: Inhibition of human factor 11a using H-D-Lys(Cbo)-Pro-Arg-pNA as substrate
Sequence of Coagulation factor XI (P03951 19-387 limits assumed): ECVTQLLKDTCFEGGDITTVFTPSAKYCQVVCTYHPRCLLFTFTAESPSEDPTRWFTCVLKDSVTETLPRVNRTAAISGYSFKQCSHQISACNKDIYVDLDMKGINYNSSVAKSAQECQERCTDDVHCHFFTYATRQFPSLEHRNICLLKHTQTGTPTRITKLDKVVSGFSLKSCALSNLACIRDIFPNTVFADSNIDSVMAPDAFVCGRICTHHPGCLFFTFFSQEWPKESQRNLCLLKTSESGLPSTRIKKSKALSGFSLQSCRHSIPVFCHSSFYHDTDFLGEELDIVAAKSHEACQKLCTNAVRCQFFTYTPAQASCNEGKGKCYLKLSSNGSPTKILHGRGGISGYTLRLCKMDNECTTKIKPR
Sequence of Coagulation factor XI (P03951 388-625 limits assumed): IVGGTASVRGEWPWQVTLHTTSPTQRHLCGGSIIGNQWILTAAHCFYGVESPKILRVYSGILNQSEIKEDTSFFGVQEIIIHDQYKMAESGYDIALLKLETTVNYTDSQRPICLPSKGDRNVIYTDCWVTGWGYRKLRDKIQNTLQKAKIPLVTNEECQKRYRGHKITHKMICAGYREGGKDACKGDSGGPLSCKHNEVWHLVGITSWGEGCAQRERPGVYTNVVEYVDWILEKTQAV

Coagulation factor XII = target: T6, Coagulation factor XII (Homo sapiens, UniProt P00748); test: Inhibition of human factor 12a using CHA-Gly-Arg- pNA as substrate
T6 sequence (P00748 whole entry): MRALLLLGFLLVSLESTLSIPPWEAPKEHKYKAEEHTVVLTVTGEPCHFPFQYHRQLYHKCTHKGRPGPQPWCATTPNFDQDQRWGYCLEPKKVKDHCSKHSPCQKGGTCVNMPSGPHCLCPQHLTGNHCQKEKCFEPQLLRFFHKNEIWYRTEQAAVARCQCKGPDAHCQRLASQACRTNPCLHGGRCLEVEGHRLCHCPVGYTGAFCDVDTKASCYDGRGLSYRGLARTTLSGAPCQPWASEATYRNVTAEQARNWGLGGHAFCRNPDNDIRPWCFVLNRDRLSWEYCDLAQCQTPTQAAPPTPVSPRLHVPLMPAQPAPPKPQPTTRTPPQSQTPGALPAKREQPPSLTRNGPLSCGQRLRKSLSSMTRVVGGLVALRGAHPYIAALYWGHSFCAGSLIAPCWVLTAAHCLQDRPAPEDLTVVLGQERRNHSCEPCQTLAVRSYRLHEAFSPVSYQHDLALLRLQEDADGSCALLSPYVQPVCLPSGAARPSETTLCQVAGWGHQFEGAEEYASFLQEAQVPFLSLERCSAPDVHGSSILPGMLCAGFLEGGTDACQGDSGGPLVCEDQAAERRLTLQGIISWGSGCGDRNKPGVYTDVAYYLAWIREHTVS

[9] = target: Tissue-type plasminogen activator (Homo sapiens, UniProt P00750); test: Inhibition of human tissue-type plasminogen activator using Mes-d-Cha- Gly-Arg-pNA as substrate
Sequence of Tissue-type plasminogen activator (P00750 whole entry): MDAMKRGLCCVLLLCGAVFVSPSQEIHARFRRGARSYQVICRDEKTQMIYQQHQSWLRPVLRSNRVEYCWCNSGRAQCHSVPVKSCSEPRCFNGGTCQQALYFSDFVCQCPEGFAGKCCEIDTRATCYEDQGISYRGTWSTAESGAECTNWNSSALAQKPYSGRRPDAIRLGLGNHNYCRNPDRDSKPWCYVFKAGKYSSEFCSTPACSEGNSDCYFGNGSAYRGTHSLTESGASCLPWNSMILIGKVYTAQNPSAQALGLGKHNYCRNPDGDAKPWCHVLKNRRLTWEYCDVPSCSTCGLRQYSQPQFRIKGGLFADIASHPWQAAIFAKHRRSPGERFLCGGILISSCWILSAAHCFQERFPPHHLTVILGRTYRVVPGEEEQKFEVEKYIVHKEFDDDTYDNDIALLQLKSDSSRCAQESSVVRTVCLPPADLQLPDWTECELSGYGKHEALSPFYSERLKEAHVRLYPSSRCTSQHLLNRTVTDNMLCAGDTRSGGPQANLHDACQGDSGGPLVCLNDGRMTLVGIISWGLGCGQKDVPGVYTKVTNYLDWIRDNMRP

Plasminogen [10] = target: T1, Plasminogen; test: Competitive inhibition of human plasmin assessed as reduction in hydrolytic activity using S-2251 as substrate by spectrophotometric method
Plasminogen [11] = target: T1, Plasminogen; test: Inhibition of human plasmin assessed as reduction in proteolysis activity in presence of fibrinogen after 90 mins by SDS-PAGE analysis
Coagulation factor X [12] = target: T5, Coagulation factor X; test: Inhibition of human factor 10a (unknown origin) assessed as reduction in hydrolysis activity preincubated for 10 mins followed by spectrozyme FXa
Prothrombin [13] = target: T4, Prothrombin; test: Inhibition of thrombin (unknown origin) assessed as reduction in hydrolysis activity preincubated for 10 mins followed by spectrozyme TH

T1 sequence (P00747 97-580 limits assumed): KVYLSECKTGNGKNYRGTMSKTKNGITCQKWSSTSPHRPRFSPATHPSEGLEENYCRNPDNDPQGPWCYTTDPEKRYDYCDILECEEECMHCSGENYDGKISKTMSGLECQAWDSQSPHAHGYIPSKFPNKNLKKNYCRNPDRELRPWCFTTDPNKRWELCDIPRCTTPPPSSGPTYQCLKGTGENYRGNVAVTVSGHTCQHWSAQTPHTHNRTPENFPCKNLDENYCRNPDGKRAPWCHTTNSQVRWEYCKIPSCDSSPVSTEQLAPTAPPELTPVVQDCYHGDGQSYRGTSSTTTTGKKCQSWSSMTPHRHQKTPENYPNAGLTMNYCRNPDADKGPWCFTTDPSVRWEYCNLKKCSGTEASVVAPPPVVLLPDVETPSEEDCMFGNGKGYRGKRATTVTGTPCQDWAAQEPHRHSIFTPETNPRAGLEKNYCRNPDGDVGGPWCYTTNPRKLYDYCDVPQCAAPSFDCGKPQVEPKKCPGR
T1 sequence (P00747 581-810 limits assumed): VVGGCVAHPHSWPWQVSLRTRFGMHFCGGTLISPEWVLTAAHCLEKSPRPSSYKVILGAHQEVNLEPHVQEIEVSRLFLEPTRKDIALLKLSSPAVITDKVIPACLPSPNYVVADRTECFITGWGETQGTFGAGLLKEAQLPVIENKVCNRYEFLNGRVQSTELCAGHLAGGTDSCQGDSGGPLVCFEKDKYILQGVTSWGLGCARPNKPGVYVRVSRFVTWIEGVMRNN

- Ki (Plasminogen [1]): 310 nM
SMILES: N=C(N)Nc1ccc(C(=O)Oc2ccc(S(N)(=O)=O)cc2)cc1

- Ki (Plasminogen [2]): 140 nM
SMILES: N=C(N)c1cccc(C[C@H](NS(=O)(=O)c2ccc3ccccc3c2)C(=O)N2CCCC(C(=O)NCc3cccs3)C2)c1 (stereo not given in full)

- Ki (Plasminogen [10]): 1900 nM
SMILES: CCOC(=O)c1ccc(OC(=O)CCCCCNC(=N)N)cc1 [GABEXATE]

The next lines start with the compound.

SMILES: N=C(N)c1ccc(CNC(=O)[C@H](CCC2CCNCC2)NC(=O)[C@@H](CCCc2ccccc2)NS(=O)(=O)Cc2ccccc2)cc1
- Ki [3]: > 130 nM
- Ki [4]: > 130 nM
- Ki [5]: > 130 nM
- Ki [6]: > 130 nM
- Ki (Prothrombin [7]): > 130 nM
- Ki (Coagulation factor X [8]): > 130 nM
- Ki (Coagulation factor XI): > 130 nM
- Ki (Coagulation factor XII): > 130 nM
- Ki [9]: > 130 nM

SMILES: CC(=O)N[C@@H](CCCCN)C(=O)N[C@@H](CCS(C)(=O)=O)C(=O)N[C@@H](Cc1ccc(O)cc1)C(=O)N[C@H](C=O)CCCNC(=N)N (Ac-K[Met(O2)]YR-aldehyde)
- Ki (Plasminogen [11]): 3.3 nM

SMILES: O=c1c(OS(=O)(=O)O)c(-c2ccc(OS(=O)(=O)O)c(OS(=O)(=O)O)c2)oc2cc(OS(=O)(=O)O)cc(OCc3cn(CCCCCCCCn4c(-c5ccc(OS(=O)(=O)O)cc5)nc5ccccc5c4=O)nn3)c12
- IC50 (Coagulation factor X [12]): > 250000 nM
- IC50 (Prothrombin [13]): > 500000 nM

Reference: ChEMBL document CHEMBL4354815, “Fibrinolysis Inhibitors: Potential Drugs for the Treatment and Prevention of Bleeding” (J Med Chem, 2020)
